Patent publication US6333340A, “Small molecule sulfonamides for vision and memory disorders” (Gpi Nil Holdings, Inc., priority 1998, dated 2001)

Key:
[1] = Clearance (comments of Table V); assay type: in vitro ADME
retinal ganglion cells = assay: Optic nerve transection, ganglion cell survival and axonal dying back (Example 16); assay type: in vivo, Sprague Dawley rats; conditions: 10 mg/kg/day s.c. for 28 days; 90 days after transection
From the text: Transection of the mammalian optic nerve results in a brief period of abortive regeneration, but the majority of axotomized neurons die and the axons from many persisting ganglion cells die back beyond the optic nerve head.

aged mice = assay: Morris watermaze, spatial learning and memory in aged mice; assay type: in vivo, male C57BL/6N-Nia mice; conditions: 10mg/kg daily
From the text: The Morris watermaze is widely used for assessing spatial memory formation and retention in experimental animals. The test depends on the animal's ability to utilize spatial visual information in order to locate a submerged escape platform in a water tank. It is important that the tank itself be as devoid of specific visual features as possible--thus, it is always circular in shape, the sides are kept smooth and in uniform dull colors, and the water is rendered opaque with nontoxic watercolor pigment or powdered milk. This is to ensure that the animal navigates only by the use of more distant visual cues, or by the use of intra-maze cues specifically provided by the experimenter. The tank is filled to a level which forces the animal to swim actively. Normal mice and rats react […] to the swimming part of the test and will climb onto, and remain on, an escape platform from which they are removed to a heated resting cage. If the platform is visible (i.e. above the surface), animals placed in the tank will quickly learn to home in on the platform and climb out onto it. Testing with a visible platform will also ensure that the experimental animals are not blind and show sufficient motivation and stamina to perform the task, which can be important in experiments involving aged rodents. If the platform is invisible (i.e. submerged just below the surface), normal animals learn to use distant visual cues in the test room for orientation in the test tank, and, when placed in the tank, will quickly home in on the approximate location of the platform and circle in that area until the platform is found. The animals' path, speed, and swim time are tracked with a ceiling camera for later computerized analysis. Over the course of several successive trials, spatial learning can therefore be defined as a drop of distance swum, or time elapsed, from placement in the tank until escape onto the invisible platform. The test can be adapted to assess several aspects of spatial memory: a) acquisition of a cued task, where the animal's ability to link one visual cue directly with the escape platform depends on cortical function (i.e. a ball is suspended over the escape platform and the animal learns to follow this cue to find the platform); b) acquisition of a spatial task, where the animal's ability to learn the location of a submerged escape platform based on a combination of distant visual cues is dependent upon hippocampal function (i.e. the animal learns to triangulate its position in the tank by visually aligning the paper-tower dispenser with the door and ceiling lamp); c) retention of a successfully acquired spatial task, which is predominantly dependant on cortical function (i.e. the animal must remember the spatial location of the platform over several weeks); d) a hippocampus-dependant reversal task where the animals must reacquire a new spatial platform location (i.e. the platform is moved to a new location between swim trials and the animal must abandon its previous search strategy and acquire a new one). These different modifications of the Morris watermaze procedure can be applied in sequence to the same set of experimental animals and allow for a thorough characterization of their spatial memory performance and its decline with normal ageing. […]

[2] = retention after 3 weeks of dosing

CCC(C)(C)C(=O)C(=O)N1CCC[C@H]1C(=O)OCCCc1cccnc1 [GPI 1046]
Clearance [1]: 3.8 µL/min | perikaryal neuroprotection (retinal ganglion cells): moderate degree of perikaryal neuroprotection | preservation of axons of protected neurons in the proximal stump (retinal ganglion cells): preserved the axons of virtually all protected neurons | sparing of the ganglion cell population (retinal ganglion cells): 25% | spatial memory performance of mice with age-related spatial memory impairments (aged mice; systemic): significantly enhanced spatial memory performance | P, retention phase, young vs aged impaired GPI-1046 (aged mice; F1.69 =3.09): 0.08 | P, retention testing, aged impaired-vehicle vs aged impaired GPI-1046 (aged mice; F1.69 =8.11): 0.006 | retention phase, difference between young and aged impaired GPI-1046 groups (aged mice; [2]): no longer any statistically significant difference | retention testing, aged impaired-vehicle compared with aged impaired GPI-1046 (aged mice; [2]): "aged impaired-vehicle" treated animals performed significantly poorer than "aged impaired - GPI-1046"
